Drawing on patent US8729095B2, “3-(biaryloxy)propionic acid derivatives for prevention and/or treatment of thromboembolic diseases” (Daiichi Sankyo Company, Limited, priority 2009, dated 2014), this text covers IC50 and inhibition for 15 molecules.

The test system of assay [1] is platelet aggregation induced by ADP in human platelet-rich plasma (PRP). The assay can be described thus: Human platelet aggregation inhibitory activity (ADP-induced, platelet-rich plasma). Format: cell-based. The following applies: 8 min, ADP final concentration 20 μM, maximum aggregation rate, measured for 8 minutes. On the procedure:
A blood collecting syringe containing 1/10 volume of a 3.8% sodium citrate solution was used to collect blood from radial vein of a healthy person. The collected blood was centrifuged at 180×g at room temperature for 10 minutes to separate the supernatant (platelet-rich plasma; PRP). After PRP was separately collected, the remaining blood was centrifuged at 1,600×g for 10 minutes to separately collect platelet-poor plasma (PPP) of the upper layer. PRP was left at rest at 16° C. for 30 minutes, and subsequently used for measurement.
200 μL of the separately collected PRP was dispensed into a cuvette for the aggregation test, and 1 μL of dimethylsulfoxide (control) or a test compound solution diluted with dimethylsulfoxide was added, followed by incubation at 37° C. for 2 minutes. Subsequently, 2 μL of 2 mM ADP was added (final concentration 20 μM) to induce platelet aggregation.
Platelet aggregation was measured for 8 minutes using an aggregometer (MCM HEMA TRACER 313M; MC MEDICAL, INC.). With the light transmittance rate of PPP being set as an aggregation value of 100%, the maximum aggregation rate was determined for each concentration of the test compounds to calculate IC50 values.

In assay [2] the test system is platelet aggregation induced by ADP in rat platelet-rich plasma (PRP). Put plainly: Platelet aggregation inhibitory activity during oral administration in a rat (ex vivo, ADP-induced). The following applies: male Wistar rats, 1 mg/10 ml/kg orally, blood collected 4 hours after administration, ADP final concentration 3 μM, vs. control PRP (solvent only), read-out: Inhibition Rates (%). The method, then: 1 mg/10 ml/kg of the test compound was orally administered by gavage to male rats (Slc: Wistar, age 8 to 9 weeks) that had been fasted overnight. 4 hours after administration, a syringe containing 1/10 volume of a 3.13% sodium citrate solution was used to collect blood from the abdominal aorta of a rat under anesthesia. From the collected blood, platelet-rich plasma (PRP) and platelet-poor plasma (PPP) were prepared according to the method described in the method for measuring human platelet aggregation inhibitory activity. PRP was left at rest at 16° C. for 30 minutes, and subsequently used for measurement.
200 μL of the separately collected PRP was dispensed into a cuvette for the aggregation test, followed by incubation at 37° C. for 2 minutes, and subsequently 2 μL of 0.3 mM ADP was added (final concentration 3 μM) to induce platelet aggregation.
Platelet aggregation was measured for 8 minutes using an aggregometer (MCM HEMA TRACER 313M; MC MEDICAL, INC.). With the light transmittance rate of PPP being set as an aggregation value of 100%, the maximum aggregation rate of PRP was determined, and compared with the maximum aggregation rate of control PRP (rat administered only with a solvent) to calculate inhibition rates.

As to `C[C@@H]1Oc2ncc(Cl)cc2N(C2CCN(C(=O)c3ccc(-c4ccccc4OCC(C)(C)C(=O)O)cc3F)CC2)C1=O` [Example 2, 3-{[4′-({4-[(3S)-7-Chloro-3-methyl-2-oxo-2,3-dihydro-1H-pyrido[2,3-b][1,4]oxazin-1-yl]piperidin-1-yl}carbonyl)-3′-fluorobiphenyl-2-yl]oxy}-2,2-dimethylpropanoic acid], the IC50 (usually the point on the concentration scale where inhibition reaches its midpoint) in assay [1] came to 3.5 µM. The inhibition – broadly, the relative decrease from the control value, in per cent – at 1 mg/kg in assay [2] turned out to be 66%.
As for `C[C@H](CC(=O)O)Oc1ccccc1-c1ccc(C(=O)N2CCC(N3C(=O)C(C)(C)Cc4ncc(Cl)cc43)CC2)c(F)c1` [Example 5, (3R)-3-[(4′-{[4-(7-Chloro-3,3-dimethyl-2-oxo-3,4-dihydro-1,5-naphthyridin-1(2H)-yl)piperidin-1-yl]carbonyl}-3′-fluorobiphenyl-2-yl)oxy]butanoic acid], in assay [1], it took 3.4 µM to reach half-maximal inhibition (IC50). Further, in assay [2], the inhibition at 1 mg/kg was 70%.
On the same counts, the results for `C[C@H](CC(=O)O)Oc1ccccc1-c1ccc(C(=O)N2CCC(N3C(=O)C(C)(C)Oc4ncc(Cl)cc43)CC2)c(F)c1` [Example 6, (3R)-3-[(4′-{[4-(7-Chloro-3,3-dimethyl-2-oxo-2,3-dihydro-1H-pyrido[2,3-b][1,4]oxazin-1-yl)piperidin-1-yl]carbonyl}-3′-fluorobiphenyl-2-yl)oxy]butanoic acid] are 2.4 µM and 54%.
Turning to `C[C@@H](Oc1ccccc1-c1ccc(C(=O)N2CCC(N3C(=O)C(C)(C)Oc4ncc(Cl)cc43)CC2)c(F)c1)[C@@H](C)C(=O)O` [Example 9, (2R,3R)-3-[(4′-{[4-(7-Chloro-3,3-dimethyl-2-oxo-2,3-dihydro-1H-pyrido[2,3-b][1,4]oxazin-1-yl)piperidin-1-yl]carbonyl}-3′-fluorobiphenyl-2-yl)oxy]-2-methylbutanoic acid], half-maximal inhibition in assay [1] (IC50) was put at 2.1 µM. Also, the inhibition at 1 mg/kg in assay [2] came out at 52%.
On the same counts, the results for `CC[C@@H](COc1ccccc1-c1ccc(C(=O)N2CCC(N3C(=O)C(C)(C)Oc4ncc(Cl)cc43)CC2)c(F)c1)C(=O)O` [Example 10, (2S)-2-{[(4′-{[4-(7-Chloro-3,3-dimethyl-2-oxo-2,3-dihydro-1H-pyrido[2,3-b][1,4]oxazin-1-yl)piperidin-1-yl]carbonyl}-3′-fluorobiphenyl-2-yl)oxy]methyl}butanoic acid] are 8.4 µM and 47%.
On the same counts, the results for `C[C@@H](COc1ccccc1-c1ccc(C(=O)N2CCC(N3C(=O)C(C)(C)Cc4ncc(Cl)cc43)CC2)c(F)c1)C(=O)O` [Example 11, (2S)-3-[(4′-{[4-(7-Chloro-3,3-dimethyl-2-oxo-3,4-dihydro-1,5-naphthyridin-1(2H)-yl)piperidin-1-yl]carbonyl}-3′-fluorobiphenyl-2-yl)oxy]-2-methylpropanoic acid] are 6.1 µM and 45%.
In assay [1], `C[C@H](CC(=O)O)Oc1ccc(F)cc1-c1ccc(C(=O)N2CCC(N3C(=O)C(C)(C)Oc4ncc(Cl)cc43)CC2)c(F)c1` [Example 13, (3R)-3-[(4′-{[4-(7-Chloro-3,3-dimethyl-2-oxo-2,3-dihydro-1H-pyrido[2,3-b][1,4]oxazin-1-yl)piperidin-1-yl]carbonyl}-3′,5-difluorobiphenyl-2-yl)oxy]butanoic acid] yielded an IC50 of 4.1 µM. Further, the inhibition at 1 mg/kg in assay [2] is 63%.
In the case of `C[C@H](CC(=O)O)Oc1ccc(F)cc1-c1ccc(C(=O)N2CCC(N3C(=O)C(C)(C)Cc4ncc(Cl)cc43)CC2)c(F)c1` [Example 14, (3R)-3-[(4′-{[4-(7-Chloro-3,3-dimethyl-2-oxo-3,4-dihydro-1,5-naphthyridin-1(2H)-yl)piperidin-1-yl]carbonyl}-3′,5-difluorobiphenyl-2-yl)oxy]butanoic acid], the IC50 in assay [1] was found to be 3.4 µM. Besides, the inhibition at 1 mg/kg in assay [2] amounted to 79%.
`Cc1cc(-c2ccccc2O[C@H](C)CC(=O)O)ccc1C(=O)N1CCC(N2C(=O)C(C)(C)Oc3ncc(Cl)cc32)CC1` [Example 16, (3R)-3-[(4′-{[4-(7-Chloro-3,3-dimethyl-2-oxo-2,3-dihydro-1H-pyrido[2,3-b][1,4]oxazin-1-yl)piperidin-1-yl]carbonyl}-3′-methylbiphenyl-2-yl)oxy]butanoic acid]: in assay [1], the IC50 stood at 6.5 µM. For the same molecule, the inhibition at 1 mg/kg in assay [2] was 40%.
The molecule `Cc1cc(-c2cc(F)ccc2O[C@H](C)CC(=O)O)ccc1C(=O)N1CCC(N2C(=O)C(C)(C)Oc3ncc(Cl)cc32)CC1` [Example 17, (3R)-3-[(4′-{[4-(7-Chloro-3,3-dimethyl-2-oxo-2,3-dihydro-1H-pyrido[2,3-b][1,4]oxazin-1-yl)piperidin-1-yl]carbonyl}-5-fluoro-3′-methylbiphenyl-2-yl)oxy]butanoic acid] registered an IC50 in assay [1] of 9.8 µM. Further, the inhibition at 1 mg/kg in assay [2] came to 52%.
On the same counts, the results for `C[C@H](CC(=O)O)Oc1ccccc1-c1ccc(C(=O)N2CCC(N3C(=O)C(C)(C)Oc4ncc(Cl)cc43)CC2)c(Cl)c1` [Example 19, (3R)-3-[(3′-Chloro-4′-{[4-(7-chloro-3,3-dimethyl-2-oxo-2,3-dihydro-1H-pyrido[2,3-b][1,4]oxazin-1-yl)piperidin-1-yl]carbonyl}biphenyl-2-yl)oxy]butanoic acid] are 7.5 µM and 64%.
On the same counts, the results for `C[C@@H]1Oc2ncc(Cl)cc2N(C2CCN(C(=O)c3ccc(-c4ccccc4OC[C@H](C)C(=O)O)cc3F)CC2)C1=O` [Example 24, (2S)-3-{[4′-({4-[(3S)-7-Chloro-3-methyl-2-oxo-2,3-dihydro-1H-pyrido[2,3-b][1,4]oxazin-1-yl]piperidin-1-yl}carbonyl)-3′-fluorobiphenyl-2-yl]oxy}-2-methylpropanoic acid] are 3.1 µM and 44%.
Consider `C[C@@H](COc1ccccc1-c1ccc(C(=O)N2CCC(N3C(=O)C(C)(C)Oc4ncc(Cl)cc43)CC2)c(F)c1)C(=O)O` [Example 25, (2S)-3-[(4′-{[4-(7-Chloro-3,3-dimethyl-2-oxo-2,3-dihydro-1H-pyrido[2,3-b][1,4]oxazin-1-yl)piperidin-1-yl]carbonyl}-3′-fluorobiphenyl-2-yl)oxy]-2-methylpropanoic acid], for which the IC50 in assay [1] worked out at 5.1 µM. In assay [2], the inhibition at 1 mg/kg turned out to be 46%.
Take `C[C@@H](COc1ccc(F)cc1-c1cnc(C(=O)N2CCC(N3C(=O)C(C)(C)Oc4ncc(Cl)cc43)CC2)c(F)c1)C(=O)O` [Example 49, (2S)-3-[2-(6-{[4-(7-Chloro-3,3-dimethyl-2-oxo-2,3-dihydro-1H-pyrido[2,3-b][1,4]oxazin-1-yl)piperidin-1-yl]carbonyl}-5-fluoropyridin-3-yl)-4-fluorophenoxy]-2-methylpropanoic acid]: the IC50 in assay [1] was found to be 1.7 µM.
The same measure, in the same setting: to `Cc1cc(-c2ccccc2O[C@H](C)CC(=O)O)c(C)cc1C(=O)N1CCC(N2C(=O)C(C)(C)Oc3ncc(Cl)cc32)CC1` [Example 54, (3R)-3-[(4′-{[4-(7-Chloro-3,3-dimethyl-2-oxo-2,3-dihydro-1H-pyrido[2,3-b][1,4]oxazin-1-yl)piperidin-1-yl]carbonyl}-2′,5′-dimethylbiphenyl-2-yl)oxy]butanoic acid] belongs 11.4 µM.
